According to US7868005B2, “Pyrazinyl substituted piperazine-piperidines with CXCR3 antagonist activity” (Schering Corporation, priority 2005, dated 2011):
pIC50: −log10 of the molar value.

The compounds below were run against T1, human CXCR3 (N-delta 4) (Homo sapiens, UniProt P49682) (assay: Human CXCR3 (N-delta 4) Scintillation Proximity Assay (SPA), [125I] IP-10 binding to Ba/F3-hCXCR3 membranes). Details: IC50 rating, Table 1; read-out: IC50.
T1 construct: CD8 leader (N); Flag; expressed in transfected cells; membranes prepared
T1 sequence (P49682 5-368 limits assumed): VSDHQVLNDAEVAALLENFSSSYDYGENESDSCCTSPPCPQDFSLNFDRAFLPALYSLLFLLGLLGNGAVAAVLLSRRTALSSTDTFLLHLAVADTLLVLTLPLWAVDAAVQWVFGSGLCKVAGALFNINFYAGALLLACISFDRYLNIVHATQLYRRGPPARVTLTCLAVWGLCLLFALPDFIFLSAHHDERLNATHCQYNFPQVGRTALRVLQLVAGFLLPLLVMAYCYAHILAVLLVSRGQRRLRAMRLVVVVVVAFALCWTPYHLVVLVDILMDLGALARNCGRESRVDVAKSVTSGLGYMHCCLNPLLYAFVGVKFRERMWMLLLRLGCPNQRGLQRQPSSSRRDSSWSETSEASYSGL

| Structure (SMILES) | pIC50 |
| --- | --- |
| CC[C@H]1CN(c2nc(N)c(C(=O)NCCO)nc2Cl)CCN1C1CCN(Cc2ccc(F)cc2)CC1 [compound 133] | > 7.60 |
| CC[C@H]1CN(c2nc(N)c(C(N)=O)nc2Cl)CCN1C1CCN(Cc2ccc(Cl)cc2[C@H](O)C(=O)NC)CC1 [compound 12] | > 7.60 |
| CC[C@H]1CN(c2nc(N)c(C(=O)NC)nc2Cl)CCN1C1CCN(Cc2ccc(-n3cncn3)cc2)CC1 [compound 75] | 7.00 to 7.60 |
| CC[C@H]1CN(c2nc(N)c(C(=O)OC)nc2Cl)CCN1C1CCN(C(=O)c2ccc(Cl)cc2C(C)C#N)CC1 (some centres unmarked) [compound 372] | < 7.00 |
| CC[C@H]1CN(c2ncc(C(=O)NC3=NCCN3)nc2Cl)CCN1C1CCN(C(=O)c2ccc(Cl)cc2)CC1 [compound 424] | < 7.00 |
| CC[C@H]1CN(c2nc(N)c(C(=O)NC3CC3)nc2Cl)CCN1C1CCN(Cc2ccc(Cl)cc2OCCO)CC1 [compound 85] | > 7.60 |
| CC[C@H]1CN(c2nc(N)c(C(=O)NCCO)nc2Cl)CCN1C1CCN(Cc2ccc(Cl)cc2-c2cnc(N)nc2)CC1 [compound 171] | > 7.60 |
| CC[C@H]1CN(c2nc(N)c(C(=O)NCCO)nc2Cl)CCN1C1CCN(Cc2ccc(F)c(F)c2O)CC1 [compound 178] | 7.00 to 7.60 |
| CC[C@H]1CN(c2cnc(C(=O)OC(C)C)c(N)n2)CCN1C1CCN(Cc2ccc(Cl)cc2)CC1 [compound 311] | < 7.00 |
| CC[C@H]1CN(c2ncc(C(=O)NC3CC3)nc2C)CCN1C1CCN(Cc2ccc(Cl)cc2)CC1 [compound 449] | > 7.60 |
| CC[C@H]1CN(c2nc(N)c(C(=O)NCCO)nc2Cl)CCN1C1CCN([C@H](CO)c2ccc(F)c(F)c2)CC1 [compound 182] | 7.00 to 7.60 |
| CC[C@H]1CN(c2nc(N)c(C(=O)NC)nc2Cl)CCN1C1CCN(C(=O)c2ccc(Br)cc2F)CC1 [compound 342] | 7.00 to 7.60 |
| CC[C@H]1CN(c2nc(N)c(C(=O)OC)nc2Cl)CCN1C1CCN(Cc2ccc(Cl)cc2CCNC(C)=O)CC1 [compound 309] | < 7.00 |
| CC[C@H]1CN(c2nc(N)c(C(=O)NCCO)nc2Cl)CCN1C1CCN(Cc2ccc(C#N)cc2OCC(=O)NCCO)CC1 [compound 146] | > 7.60 |
| CC[C@H]1CN(c2nc(N)c(C(=O)NCCO)nc2Cl)CCN1C1CCN(Cc2ccc(Cl)cc2OCCNS(C)(=O)=O)CC1 [compound 130] | > 7.60 |
| CC[C@H]1CN(c2nc(N)c(C(=O)NCCO)nc2Cl)CCN1C1CCN(Cc2ccc(Cl)cc2C(N)=O)CC1 [compound 127] | > 7.60 |
| CC[C@H]1CN(c2ncc(C(=O)NC3CC3)nc2C)CCN1C1CCN(C(=O)c2ccc(Cl)cc2)CC1 [compound 460] | > 7.60 |
| CC[C@H]1CN(c2nc(N)c(C(=O)NCCO)nc2Cl)CCN1C1CCN(Cc2ccc(F)cc2F)CC1 [compound 158] | > 7.60 |
| CC[C@H]1CN(c2nc(N)c(C(=O)NCCO)nc2Cl)CCN1C1CCN(Cc2ccc(C#N)cc2OCC(=O)NCCO)CC1 [compound 191] | 7.00 to 7.60 |
| CC[C@H]1CN(c2nc(N)c(C(=O)NCC(=O)O)nc2Cl)CCN1C1CCN(Cc2ccc(Cl)cc2)CC1 [compound 105] | < 7.00 |
| CC[C@H]1CN(c2nc(N)c(C(=O)N3CCN(S(C)(=O)=O)CC3)nc2Cl)CCN1C1CCN(Cc2ccc(Cl)cc2)CC1 [compound 313] | < 7.00 |

| Structure (SMILES) | pIC50 |
| --- | --- |
| CC[C@H]1CN(c2ncc(C(=O)NC3CC3)nc2C)CCN1C1CCN([C@H](CO)c2ccc(F)c(F)c2)CC1 [compound 472] | > 7.60 |
| CC[C@H]1CN(c2nc(N)c(C(=O)NCCO)nc2Cl)CCN1C1CCN(Cc2ccc(OC(F)(F)F)cc2)CC1 [compound 112] | > 7.60 |
| CC[C@H]1CN(c2nc(N)c(C(N)=O)nc2Cl)CCN1C1CCN(Cc2ccc(Cl)cc2C2CNC(=O)O2)CC1 (some centres unmarked) [compound 385] | > 7.60 |
| CC[C@H]1CN(c2nc(N)c(C(=O)NC3CC3)nc2Cl)CCN1C1CCN(C(CCNC(=O)OC(C)(C)C)c2ccc(Cl)cc2)CC1 (some centres unmarked) [compound 96] | < 7.00 |
| CC[C@H]1CN(c2nc(N)c(C(=O)NCCO)nc2Cl)CCN1C1CCN(Cc2ccc(Cl)cc2NS(C)(=O)=O)CC1 [compound 196] | < 7.00 |
| CC[C@H]1CN(c2nc(N)c(C(=O)O)nc2Cl)CCN1C1CCN(Cc2ccc(Cl)cc2)CC1 [compound 293] | < 7.00 |
| CC[C@H]1CN(c2nc(N)c(C(N)=O)nc2Cl)CCN1C1CCN(Cc2ccc(Cl)cc2CCNS(C)(=O)=O)CC1 [compound 36] | 7.00 to 7.60 |
| CC[C@H]1CN(c2nc(N)c(C(N)=O)nc2Cl)CCN1C1CCN(Cc2ccc(Cl)cc2CC(=O)NCCNS(C)(=O)=O)CC1 [compound 46] | < 7.00 |
| CC[C@H]1CN(c2nc(N)c(C(N)=O)nc2Cl)CCN1C1CCN(Cc2ccc(Cl)cc2NC(=O)C(C)O)CC1 (some centres unmarked) [compound 27] | 7.00 to 7.60 |
| CC[C@H]1CN(c2nc(N)c(C(=O)NCCO)nc2Cl)CCN1C1CCN(Cc2ccc(OC(F)(F)F)cc2OCCCO)CC1 [compound 125] | > 7.60 |
| CC[C@H]1CN(c2nc(N)c(C(=O)NCCO)nc2Cl)CCN1C1CCN(Cc2cc(F)c(Cl)cc2O)CC1 [compound 159] | > 7.60 |
| CC[C@H]1CN(c2nc(N)c(C(=O)NC)nc2Cl)CCN1C1CCN(C(=O)c2ccc(OC(F)(F)F)cc2)CC1 [compound 350] | 7.00 to 7.60 |
| CC[C@H]1CN(c2nc(N)c(C(=O)NCCNS(C)(=O)=O)nc2Cl)CCN1C1CCN(Cc2ccc(Cl)cc2C#N)CC1 [compound 253] | 7.00 to 7.60 |
| CC[C@H]1CN(c2nc(N)c(C(=O)N[C@H]3CCN(C)C3=O)nc2Cl)CCN1C1CCN(Cc2ccc(C#N)cc2)CC1 [compound 211] | < 7.00 |
| CC[C@H]1CN(c2nc(N)c(C(=O)NC[C@@H](C)O)nc2Cl)CCN1C1CCN(Cc2ccc(Cl)cc2[C@H](O)C(N)=O)CC1 [compound 218] | > 7.60 |
| CC[C@H]1CN(c2nc(N)c(C(=O)NC3CC3)nc2Cl)CCN1C1CCN(Cc2ccc(Cl)cc2O)CC1 [compound 84] | > 7.60 |
| CC[C@H]1CN(c2nc(N)c(C(=O)NCCO)nc2Cl)CCN1C1CCN([C@@H](C(=O)OC)c2ccc(Cl)cc2)CC1 [compound 150] | > 7.60 |
| CC[C@H]1CN(c2nc(N)c(C(N)=O)nc2Cl)CCN1C1CCN([C@H](CO)c2ccc(Cl)cc2)CC1 [compound 49] | < 7.00 |
| CC[C@H]1CN(c2nc(N)c(C(N)=O)nc2Cl)CCN1C1CCN(Cc2ccc(Cl)cc2CC#N)CC1 [compound 33] | 7.00 to 7.60 |
| CC[C@H]1CN(c2nc(N)c(C(N)=O)nc2Cl)CCN1C1CCN(Cc2ccc(Cl)cc2N2CCN(C)C2=O)CC1 [compound 386] | > 7.60 |
| CC[C@H]1CN(c2nc(N)c(C(=O)NCCO)nc2Cl)CCN1C1CCN(C(=O)c2ccc(OC(F)(F)F)cc2O)CC1 [compound 361] | < 7.00 |

| Structure (SMILES) | pIC50 |
| --- | --- |
| CC[C@H]1CN(c2nc(N)c(C(=O)NCCO)nc2Cl)CCN1C1CCN(C(=O)c2ccc(Cl)cc2OCCN)CC1 [compound 326] | < 7.00 |
| COC(=O)c1nc(Cl)c(N2C[C@H](C)N(C3CCN(Cc4ccc(Cl)cc4F)CC3)C[C@H]2C)nc1N [compound 301] | < 7.00 |
| CC[C@H]1CN(c2nc(N)c(C(=O)NC)nc2Cl)CCN1C1CCN(C(=O)c2ccc(-n3cccn3)cc2)CC1 [compound 353] | < 7.00 |
| CC[C@H]1CN(c2nc(N)c(C(N)=O)nc2Cl)CCN1C1CCN(Cc2ccc(Cl)cc2CC(=O)NCC2CCCO2)CC1 (some centres unmarked) [compound 22] | > 7.60 |
| CC[C@H]1CN(c2nc(N)c(C(=O)NC[C@H](O)CO)nc2Cl)CCN1C1CCN(C(=O)c2ccc(Cl)cc2)CC1 [compound 359] | < 7.00 |
| CC[C@H]1CN(c2nc(N)c(C(=O)NCCO)nc2Cl)CCN1C1CCN(C(=O)c2ccc(Cl)cc2OC)CC1 [compound 362] | < 7.00 |
| CC[C@H]1CN(c2nc(N)c(C(N)=O)nc2Cl)CCN1C1CCN(Cc2ccc(Cl)cc2-c2nnn[nH]2)CC1 [compound 23] | 7.00 to 7.60 |
| CCC1CN(c2nc(N)c(C(=O)NC3CC3)nc2Cl)CCN1C1CCN(C(CCN)c2ccc(Cl)cc2)CC1 (centres unmarked) [compound 91] | > 7.60 |
| CC[C@H]1CN(c2nc(N)c(C(=O)NCCO)nc2Cl)CCN1C1CCN(Cc2ccc(Cl)cc2S(C)(=O)=O)CC1 [compound 422] | > 7.60 |
| CC[C@H]1CN(c2nc(N)c(C(=O)NNC(=S)NC)nc2Cl)CCN1C1CCN(Cc2ccc(Cl)cc2)CC1 [compound 270] | > 7.60 |
| CCNC(=O)Nc1cc(Cl)ccc1CN1CCC(N2CCN(c3nc(N)c(C(=O)NCCO)nc3Cl)C[C@@H]2CC)CC1 [compound 157] | > 7.60 |
| CC[C@H]1CN(c2nc(N)c(C(=O)NCCNS(=O)(=O)C(F)(F)F)nc2Cl)CCN1C1CCN(Cc2ccc(Cl)cc2N2CC[C@@H](O)C2)CC1 [compound 241] | > 7.60 |
| CC[C@H]1CN(c2nc(N)c(C(=O)NCCO)nc2Cl)CCN1C1CCN(Cc2ccc(O)c(F)c2)CC1 [compound 427] | < 7.00 |
| CC[C@H]1CN(c2nc(N)c(C(=O)NCCO)nc2Cl)CCN1C1CCN(Cc2ccc(Cl)cc2C(=O)O)CC1 [compound 164] | > 7.60 |
| CC[C@H]1CN(c2nc(N)c(C(=O)NCCOC)nc2Cl)CCN1C1CCN(Cc2ccc(Cl)cc2)CC1 [compound 268] | > 7.60 |
| CC[C@H]1CN(c2nc(N)c(C(=O)N=C(N)N)nc2Cl)CCN1C1CCN(Cc2ccc(Cl)cc2F)CC1 [compound 269] | < 7.00 |
| CC[C@H]1CN(c2ncc(C(=O)NC3CC3)nc2C)CCN1C1CCN([C@@H](C(=O)OC)c2ccc(Cl)cc2)CC1 [compound 485] | > 7.60 |
| CC[C@H]1CN(c2nc(N)c(C(=O)NC[C@@H](C)O)nc2Cl)CCN1C1CCN(C(=O)c2ccc(Cl)cc2)CC1 [compound 338] | > 7.60 |
| CC[C@H]1CN(c2ncc(C(N)=O)nc2Cl)CCN1C1CCN([C@H](CO)c2ccc(Cl)cc2)CC1 [compound 458] | > 7.60 |
| CC[C@H]1CN(c2nc(N)c(C(=O)NCCOc3ccccc3)nc2Cl)CCN1C1CCN(Cc2ccc(C#N)cc2)CC1 [compound 99] | > 7.60 |
